Laboratory results published in the CheMixHub ionic liquid set.

Assay: xn = mol fraction of the nth substance listed

CC(=O)[O-].CC[n+]1ccn(C)c1 + O
Details | electrical conductivity [S/m] | viscosity [mPa·s]
293.1 K, 101 kPa, x2 = 0.517 | – | 59.4
293.1 K, 101 kPa, x2 = 0.578 | – | 51.1
293.1 K, 101 kPa, x2 = 0.705 | – | 32.7
293.15 K, 100 kPa, x1 = 0.7987 | 0.314 | –
293.15 K, 100 kPa, x1 = 1 | 0.223 | –
293.15 K, 100 kPa, x2 = 0.2088 | – | 138.9
293.15 K, 101.3 kPa, x2 = 0 | 0.243 | –
293.15 K, 101.3 kPa, x2 = 0.0774 | 0.327 | –
293.15 K, 101.3 kPa, x2 = 0.1429 | 0.562 | –
293.15 K, 101.3 kPa, x2 = 0.3065 | 1.016 | –
293.15 K, 101.3 kPa, x2 = 0.4381 | 1.537 | –
293.15 K, 101.3 kPa, x2 = 0.5278 | 2.03 | –
293.15 K, 101.3 kPa, x2 = 0.7257 | 4.136 | –
293.15 K, 101.3 kPa, x2 = 0.8083 | 5.417 | –
293.15 K, 101.3 kPa, x2 = 0.8554 | 6.014 | –
293.15 K, 101.3 kPa, x2 = 0.8891 | 5.902 | –
293.15 K, 101.3 kPa, x2 = 0.9279 | 2.979 | –
293.15 K, 101.3 kPa, x2 = 0.9308 | 2.707 | –
293.15 K, 101.3 kPa, x2 = 0.9425 | 1.866 | –
293.15 K, 101.3 kPa, x2 = 0.9559 | 1.121 | –
293.15 K, 101.3 kPa, x2 = 0.9625 | 0.8 | –
298.15 K, 101 kPa, x2 = 0 | – | 132.9
298.15 K, 101 kPa, x2 = 0.0992 | – | 109.7
298.15 K, 101 kPa, x2 = 0.266 | – | 85
298.15 K, 101 kPa, x2 = 0.4207 | – | 59.5
298.15 K, 101 kPa, x2 = 0.5408 | – | 44.4
298.15 K, 101 kPa, x2 = 0.6135 | – | 35.9
303.15 K, 100 kPa, x1 = 0.2003 | 2.37 | –
303.15 K, 100 kPa, x1 = 0.7987 | 0.527 | –
303.15 K, 100 kPa, x2 = 0.4 | – | 52.7
303.15 K, 101 kPa, x2 = 0.132 | – | 84
313.15 K, 100 kPa, x2 = 0.2088 | – | 47.2
313.15 K, 100 kPa, x2 = 0.4 | – | 33.9
313.15 K, 101 kPa, x2 = 0.188 | – | 46.7
313.15 K, 101 kPa, x2 = 0.5408 | – | 23.49
323.15 K, 100 kPa, x1 = 0.5984 | 1.63 | –
323.15 K, 100 kPa, x2 = 0.2088 | – | 30.12
323.15 K, 101 kPa, x2 = 0.132 | – | 33.1
328.15 K, 101 kPa, x2 = 0.0992 | – | 27
328.15 K, 101 kPa, x2 = 0.4207 | – | 17.5
328.15 K, 101 kPa, x2 = 0.6805 | – | 9.43
328.15 K, 101 kPa, x2 = 0.8134 | – | 5.3
333.1 K, 101 kPa, x2 = 0.517 | – | 12.27
333.1 K, 101 kPa, x2 = 0.578 | – | 11
333.15 K, 100 kPa, x1 = 0.9481 | 1.31 | –
333.15 K, 100 kPa, x1 = 1 | 1.31 | –
333.15 K, 101 kPa, x2 = 0.188 | – | 21.4
333.15 K, 101 kPa, x2 = 0.266 | – | 19.5
343.15 K, 100 kPa, x1 = 1 | 1.75 | –
343.15 K, 100 kPa, x2 = 0.2088 | – | 15.07
343.15 K, 100 kPa, x2 = 0.4 | – | 12.24
343.15 K, 100 kPa, x2 = 0.8023 | – | 3.8
343.15 K, 101 kPa, x2 = 0.222 | – | 14.52
343.15 K, 101 kPa, x2 = 0.5408 | – | 8.98
343.15 K, 101 kPa, x2 = 0.6805 | – | 6.22
353.15 K, 101 kPa, x2 = 0.102 | – | 12.96
353.15 K, 101 kPa, x2 = 0.132 | – | 12.58
353.15 K, 101 kPa, x2 = 0.188 | – | 11.89
353.15 K, 101 kPa, x2 = 0.355 | – | 10.11
363.15 K, 101 kPa, x2 = 0.072 | – | 10.28
363.15 K, 101 kPa, x2 = 0.102 | – | 10.09
363.15 K, 101 kPa, x2 = 0.132 | – | 9.82
373.15 K, 101 kPa, x2 = 0.188 | – | 7.48

CCCC[n+]1ccn(C)c1.N#C[N-]C#N + O
100 kPa, x1 = 0.6252
Details | viscosity [mPa·s]
303 K | 15.03
308 K | 12.94
313 K | 11.27
318 K | 9.91
323 K | 8.77

CCCCCCCO + CCCC[n+]1ccn(C)c1.O=[N+]([O-])[O-]
100 kPa, x2 = 0
Details | viscosity [mPa·s]
293.15 K | 7.03
303.15 K | 5.03
313.15 K | 3.71
323.15 K | 2.79

CCCn1cc[n+](C)c1.[Br-] + CC(=O)N(C)C
298.15 K, 101 kPa
Details | viscosity [mPa·s]
x1 = 0.01714 | 1.124
x2 = 0.9358 | 1.653
x2 = 0.9583 | 1.383

OCC(F)(F)F + CCCC[n+]1ccn(C)c1.F[P-](F)(F)(F)(F)F
viscosity [mPa·s], 101 kPa
Details | x1 = 0.4632 | x1 = 0.5646 | x1 = 0.7299 | x1 = 0.8308 | x1 = 0.9417 | x1 = 1
278.15 K | 51.3 | 27.28 | 10.69 | 6.23 | 3.8 | 3.28
283.15 K | 40.66 | 22.32 | 8.93 | 5.29 | 3.26 | 2.81
288.15 K | 32.71 | 18.39 | 7.58 | 4.56 | 2.84 | 2.42
293.15 K | 26.74 | 15.36 | 6.51 | 3.97 | 2.49 | 2.11
298.15 K | 22.17 | 13 | 5.65 | 3.49 | 2.21 | 1.84
303.15 K | 18.63 | 11.13 | 4.95 | 3.09 | 1.96 | 1.62
308.15 K | 15.84 | 9.64 | 4.38 | 2.76 | 1.76 | 1.43
313.15 K | 13.61 | 8.42 | 3.9 | 2.49 | 1.57 | 1.27
318.15 K | 11.81 | 7.42 | 3.49 | 2.25 | 1.41 | 1.13
323.15 K | 10.34 | 6.59 | 3.15 | 2.05 | 1.28 | 1.02
328.15 K | 9.12 | 5.89 | 2.85 | 1.88 | 1.18 | 0.925
333.15 K | 8.1 | 5.3 | 2.62 | 1.73 | 1.07 | 0.824

CCCn1cc[n+](C)c1.[Br-] + CC1COC(=O)O1
298 K, 101 kPa
Details | electrical conductivity [S/m]
x2 = 0.1 | 0.04
x2 = 0.64 | 0.5
x2 = 0.67 | 0.52
x2 = 0.72 | 0.58

OCC(F)(F)F + CC[n+]1ccn(C)c1.N#C[N-]C#N
100 kPa, x2 = 0
Details | viscosity [mPa·s]
298.15 K | 1.77
308.15 K | 1.38

CCCC[n+]1ccn(C)c1.N#C[S-] + CCCC[n+]1ccn(C)c1.O=S(=O)([N-]S(=O)(=O)C(F)(F)F)C(F)(F)F
100 kPa
Details | viscosity [mPa·s]
283.15 K, x2 = 0.25 | 133.5
288.15 K, x2 = 0 | 104.5

CCCC[P+](CCCC)(CCCC)CCCC.CS(=O)(=O)[O-] + O=S1(=O)CCCC1
101.33 kPa, x1 = 0.5
Details | viscosity [mPa·s]
303.15 K | 136
313.15 K | 84
323.15 K | 50
333.15 K | 34.6
343.25 K | 24.6
353.25 K | 18.7

CCOS(=O)(=O)[O-].CC[NH+]=C(N(C)C)N(C)C + CCCO
100 kPa, x2 = 0
Details | viscosity [mPa·s]
293.15 K | 670
323.15 K | 91
